What was measured:
TTK (human) [1] = target: TTK (human) (UniProt P33981); test: SelectScreen, TR FRET
MYLK (human) = MYLK (human) (UniProt Q15746); test: KINOMEscan competition binding; settings: compound 10.0 µM
PRKD3 (human) = PRKD3 (human) (UniProt O94806); test: KINOMEscan competition binding; settings: compound 10.0 µM
TTK (human) [2] = target: TTK (human) (UniProt P33981); test: KINOMEscan competition binding; settings: for kinase still bound, per cent of control: compound 10.0 µM
SLK (human) = SLK (human) (UniProt Q9H2G2); test: KINOMEscan competition binding; settings: compound 10.0 µM
FER (human) = FER (human) (UniProt P16591); test: KINOMEscan competition binding; settings: compound 10.0 µM
ALK (human) = ALK (human) (UniProt Q9UM73); test: KINOMEscan competition binding; settings: compound 10.0 µM
PRKD1 (human) = PRKD1 (human) (UniProt Q15139); test: KINOMEscan competition binding; settings: compound 10.0 µM
CAMK1D (human) = CAMK1D (human) (UniProt Q8IU85); test: KINOMEscan competition binding; settings: compound 10.0 µM
RPS6KA6 KD2 (human) = RPS6KA6 KD2 (human) (UniProt Q9UK32); test: KINOMEscan competition binding; settings: compound 10.0 µM
STK33 (human) = STK33 (human) (UniProt Q9BYT3); test: KINOMEscan competition binding; settings: compound 10.0 µM
STK33 (human), sequence (Q9BYT3 whole entry, looked up): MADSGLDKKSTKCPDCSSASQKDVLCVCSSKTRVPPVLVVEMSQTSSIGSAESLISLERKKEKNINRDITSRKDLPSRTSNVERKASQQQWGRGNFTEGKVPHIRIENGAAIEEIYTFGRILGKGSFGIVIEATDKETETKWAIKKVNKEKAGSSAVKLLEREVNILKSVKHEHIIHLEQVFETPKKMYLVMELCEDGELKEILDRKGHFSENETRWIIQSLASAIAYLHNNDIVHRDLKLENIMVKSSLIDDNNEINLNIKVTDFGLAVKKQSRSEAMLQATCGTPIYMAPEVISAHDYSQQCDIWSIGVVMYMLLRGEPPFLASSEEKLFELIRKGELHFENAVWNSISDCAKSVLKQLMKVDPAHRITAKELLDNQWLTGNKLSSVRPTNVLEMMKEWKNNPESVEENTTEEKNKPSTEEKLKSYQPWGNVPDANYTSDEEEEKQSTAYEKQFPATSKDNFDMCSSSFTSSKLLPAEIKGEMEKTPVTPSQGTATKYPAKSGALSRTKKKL

RPS6KA1 KD2 (human) = RPS6KA1 KD2 (human) (UniProt Q15418); test: KINOMEscan competition binding; settings: compound 10.0 µM
RPS6KA1 KD2 (human), sequence (Q15418 whole entry, looked up): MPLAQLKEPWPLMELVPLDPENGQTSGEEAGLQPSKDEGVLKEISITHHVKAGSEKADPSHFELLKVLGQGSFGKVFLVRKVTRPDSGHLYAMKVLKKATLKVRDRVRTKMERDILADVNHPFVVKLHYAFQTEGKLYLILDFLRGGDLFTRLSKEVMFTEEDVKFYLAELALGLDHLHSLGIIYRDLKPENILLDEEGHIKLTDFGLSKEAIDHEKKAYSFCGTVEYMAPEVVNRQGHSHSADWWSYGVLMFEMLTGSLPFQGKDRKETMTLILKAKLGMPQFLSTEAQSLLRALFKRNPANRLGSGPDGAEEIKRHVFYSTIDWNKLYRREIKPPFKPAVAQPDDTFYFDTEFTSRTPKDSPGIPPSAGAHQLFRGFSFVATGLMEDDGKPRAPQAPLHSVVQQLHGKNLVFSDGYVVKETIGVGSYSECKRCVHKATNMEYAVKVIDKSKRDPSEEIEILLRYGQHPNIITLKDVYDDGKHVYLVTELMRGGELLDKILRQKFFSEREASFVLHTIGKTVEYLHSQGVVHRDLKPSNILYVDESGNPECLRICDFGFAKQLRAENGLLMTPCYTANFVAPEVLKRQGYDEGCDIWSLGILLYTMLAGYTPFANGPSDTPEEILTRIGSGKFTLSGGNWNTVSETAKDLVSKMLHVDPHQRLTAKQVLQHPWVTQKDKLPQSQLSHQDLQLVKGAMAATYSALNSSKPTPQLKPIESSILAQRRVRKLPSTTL

TNK1 (human) = TNK1 (human) (UniProt Q13470); test: KINOMEscan competition binding; settings: compound 10.0 µM
PLK4 (human) = PLK4 (human) (UniProt O00444); test: KINOMEscan competition binding; settings: compound 10.0 µM
PLK4 (human), sequence (O00444 whole entry, looked up): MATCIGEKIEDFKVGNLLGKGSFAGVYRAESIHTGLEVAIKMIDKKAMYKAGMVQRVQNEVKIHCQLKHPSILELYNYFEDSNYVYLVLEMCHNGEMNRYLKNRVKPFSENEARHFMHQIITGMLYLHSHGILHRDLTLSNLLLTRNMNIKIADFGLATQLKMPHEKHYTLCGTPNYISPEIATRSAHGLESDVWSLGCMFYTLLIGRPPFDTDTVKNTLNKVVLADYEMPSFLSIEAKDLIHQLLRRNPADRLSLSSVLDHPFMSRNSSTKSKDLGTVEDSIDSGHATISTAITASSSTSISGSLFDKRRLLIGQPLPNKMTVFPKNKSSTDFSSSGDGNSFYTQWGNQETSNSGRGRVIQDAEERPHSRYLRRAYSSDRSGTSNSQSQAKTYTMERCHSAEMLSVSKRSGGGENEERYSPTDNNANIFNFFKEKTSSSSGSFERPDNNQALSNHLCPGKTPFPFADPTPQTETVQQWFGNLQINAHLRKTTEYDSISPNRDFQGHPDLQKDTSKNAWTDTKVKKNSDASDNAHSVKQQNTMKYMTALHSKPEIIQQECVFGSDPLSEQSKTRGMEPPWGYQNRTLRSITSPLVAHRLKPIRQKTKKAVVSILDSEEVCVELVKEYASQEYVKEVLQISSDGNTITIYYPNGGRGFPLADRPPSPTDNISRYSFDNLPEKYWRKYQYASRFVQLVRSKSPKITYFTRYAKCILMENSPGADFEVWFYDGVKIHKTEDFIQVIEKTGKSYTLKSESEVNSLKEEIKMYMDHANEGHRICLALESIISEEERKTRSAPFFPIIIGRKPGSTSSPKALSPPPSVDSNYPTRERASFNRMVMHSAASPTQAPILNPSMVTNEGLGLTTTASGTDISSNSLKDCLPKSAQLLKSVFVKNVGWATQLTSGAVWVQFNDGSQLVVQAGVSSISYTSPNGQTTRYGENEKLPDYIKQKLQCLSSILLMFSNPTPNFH

DAPK3 (human) = DAPK3 (human) (UniProt O43293); test: KINOMEscan competition binding; settings: compound 10.0 µM
CLK2 (human) = CLK2 (human) (UniProt P49760); test: KINOMEscan competition binding; settings: compound 10.0 µM
CLK2 (human), sequence (P49760 whole entry, looked up): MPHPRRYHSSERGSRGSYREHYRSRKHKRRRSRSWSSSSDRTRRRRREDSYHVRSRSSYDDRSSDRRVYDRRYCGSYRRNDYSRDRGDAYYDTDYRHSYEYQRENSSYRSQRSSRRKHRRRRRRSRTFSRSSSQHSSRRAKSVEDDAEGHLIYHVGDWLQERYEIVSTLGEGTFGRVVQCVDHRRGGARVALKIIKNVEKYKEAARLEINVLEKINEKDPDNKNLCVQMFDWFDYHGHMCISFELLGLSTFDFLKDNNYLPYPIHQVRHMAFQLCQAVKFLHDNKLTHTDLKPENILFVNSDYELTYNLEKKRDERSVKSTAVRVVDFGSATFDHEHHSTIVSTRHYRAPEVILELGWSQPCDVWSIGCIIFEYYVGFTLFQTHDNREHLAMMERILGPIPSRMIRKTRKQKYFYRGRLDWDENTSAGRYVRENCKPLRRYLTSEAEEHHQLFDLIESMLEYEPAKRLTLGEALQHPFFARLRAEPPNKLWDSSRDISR

RPS6KA2 KD2 (human) = RPS6KA2 KD2 (human) (UniProt Q15349); test: KINOMEscan competition binding; settings: compound 10.0 µM
PTK2B (human) = PTK2B (human) (UniProt Q14289); test: KINOMEscan competition binding; settings: compound 10.0 µM
DCLK1 (human) = DCLK1 (human) (UniProt O15075); test: KINOMEscan competition binding; settings: compound 10.0 µM
DCLK1 (human), sequence (O15075 whole entry, looked up): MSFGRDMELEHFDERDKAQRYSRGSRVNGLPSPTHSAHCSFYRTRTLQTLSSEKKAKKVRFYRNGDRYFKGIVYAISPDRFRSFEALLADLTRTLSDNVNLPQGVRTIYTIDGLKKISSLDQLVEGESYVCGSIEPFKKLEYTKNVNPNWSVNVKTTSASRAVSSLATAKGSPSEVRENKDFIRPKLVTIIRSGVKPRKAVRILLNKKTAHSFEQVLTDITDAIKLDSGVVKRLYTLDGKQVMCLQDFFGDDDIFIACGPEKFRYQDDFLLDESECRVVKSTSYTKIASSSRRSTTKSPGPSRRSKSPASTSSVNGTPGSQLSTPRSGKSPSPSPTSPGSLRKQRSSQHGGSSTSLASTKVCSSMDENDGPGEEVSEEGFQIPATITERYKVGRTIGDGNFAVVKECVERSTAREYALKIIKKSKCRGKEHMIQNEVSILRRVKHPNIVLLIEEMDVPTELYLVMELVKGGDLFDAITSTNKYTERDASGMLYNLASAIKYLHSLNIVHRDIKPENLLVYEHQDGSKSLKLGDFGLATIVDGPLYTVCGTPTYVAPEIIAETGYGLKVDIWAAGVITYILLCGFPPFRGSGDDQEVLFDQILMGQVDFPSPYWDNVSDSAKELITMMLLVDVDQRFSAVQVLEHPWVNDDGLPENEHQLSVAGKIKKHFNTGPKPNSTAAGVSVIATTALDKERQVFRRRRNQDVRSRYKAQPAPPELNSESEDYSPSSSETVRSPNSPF

CAMK2A (human) = CAMK2A (human) (UniProt Q9UQM7); test: KINOMEscan competition binding; settings: compound 10.0 µM
INSRR (human) = INSRR (human) (UniProt P14616); test: KINOMEscan competition binding; settings: compound 10.0 µM
DCLK2 (human) = DCLK2 (human) (UniProt Q8N568); test: KINOMEscan competition binding; settings: compound 10.0 µM
PTK2 (human) = PTK2 (human) (UniProt Q05397); test: KINOMEscan competition binding; settings: compound 10.0 µM
CLK1 (human) = CLK1 (human) (UniProt P49759); test: KINOMEscan competition binding; settings: compound 10.0 µM
GAK (human) = GAK (human) (UniProt O14976); test: KINOMEscan competition binding; settings: compound 10.0 µM
IGF1R (human) = IGF1R (human) (UniProt P08069); test: KINOMEscan competition binding; settings: compound 10.0 µM
INSR (human) = INSR (human) (UniProt P06213); test: KINOMEscan competition binding; settings: compound 10.0 µM
DAPK2 (human) = DAPK2 (human) (UniProt Q9UIK4); test: KINOMEscan competition binding; settings: compound 10.0 µM
PLK3 (human) = PLK3 (human) (UniProt Q9H4B4); test: KINOMEscan competition binding; settings: compound 10.0 µM
PLK3 (human), sequence (Q9H4B4 whole entry, looked up): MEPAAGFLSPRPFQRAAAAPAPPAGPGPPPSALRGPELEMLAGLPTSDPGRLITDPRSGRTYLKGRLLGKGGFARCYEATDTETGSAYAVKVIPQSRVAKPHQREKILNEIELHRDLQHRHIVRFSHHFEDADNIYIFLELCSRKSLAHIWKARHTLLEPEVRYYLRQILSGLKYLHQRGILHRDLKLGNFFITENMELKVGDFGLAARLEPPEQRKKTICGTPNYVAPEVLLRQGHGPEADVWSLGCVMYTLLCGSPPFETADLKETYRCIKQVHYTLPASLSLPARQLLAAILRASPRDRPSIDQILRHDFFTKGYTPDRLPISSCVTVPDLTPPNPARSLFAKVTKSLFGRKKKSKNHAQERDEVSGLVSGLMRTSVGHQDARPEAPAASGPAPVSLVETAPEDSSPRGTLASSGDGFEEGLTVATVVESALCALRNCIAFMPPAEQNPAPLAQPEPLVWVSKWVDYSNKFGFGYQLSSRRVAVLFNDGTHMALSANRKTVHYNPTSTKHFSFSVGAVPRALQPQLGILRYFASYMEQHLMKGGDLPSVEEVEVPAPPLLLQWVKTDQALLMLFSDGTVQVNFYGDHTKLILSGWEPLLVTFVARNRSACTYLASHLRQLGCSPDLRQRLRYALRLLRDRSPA

DAPK1 (human) = DAPK1 (human) (UniProt P53355); test: KINOMEscan competition binding; settings: compound 10.0 µM
PIM1 (human) [3] = target: PIM1 (human) (UniProt P11309); test: SelectScreen, TR FRET
PIM2 (human) [4] = target: PIM2 (human) (UniProt Q9P1W9); test: SelectScreen, TR FRET
CSK (human) = CSK (human) (UniProt P41240); test: KINOMEscan competition binding; settings: compound 10.0 µM
PIM3 (human) = PIM3 (human) (UniProt Q86V86); test: KINOMEscan competition binding; settings: compound 10.0 µM
MAPK14 (human) = MAPK14 (human) (UniProt Q16539); test: KINOMEscan competition binding; settings: compound 10.0 µM
PIM1 (human) [5] = target: PIM1 (human) (UniProt P11309); test: KINOMEscan competition binding; settings: compound 10.0 µM
MAPK10 (human) = MAPK10 (human) (UniProt P53779); test: KINOMEscan competition binding; settings: compound 10.0 µM
MAPK9 (human) = MAPK9 (human) (UniProt P45984); test: KINOMEscan competition binding; settings: compound 10.0 µM
PIM2 (human) [6] = target: PIM2 (human) (UniProt Q9P1W9); test: KINOMEscan competition binding; settings: compound 10.0 µM
MAP2K3 (human) = MAP2K3 (human) (UniProt P46734); test: KINOMEscan competition binding; settings: compound 10.0 µM
CDK16 (human) = CDK16 (human) (UniProt Q00536); test: KINOMEscan competition binding; settings: compound 10.0 µM
CDK7 (human) = CDK7 (human) (UniProt P50613); test: KINOMEscan competition binding; settings: compound 10.0 µM
MAPK8 (human) = MAPK8 (human) (UniProt P45983); test: KINOMEscan competition binding; settings: compound 10.0 µM
MAPK12 (human) = MAPK12 (human) (UniProt P53778); test: KINOMEscan competition binding; settings: compound 10.0 µM
MAPK15 (human) = MAPK15 (human) (UniProt Q8TD08); test: KINOMEscan competition binding; settings: compound 10.0 µM
MYLK4 (human) = MYLK4 (human) (UniProt Q86YV6); test: KINOMEscan competition binding; settings: compound 10.0 µM
TLK2 (human) = TLK2 (human) (UniProt Q86UE8); test: KINOMEscan competition binding; settings: compound 10.0 µM
HIPK1 (human) = HIPK1 (human) (UniProt Q86Z02); test: KINOMEscan competition binding; settings: compound 10.0 µM
TAOK1 (human) = TAOK1 (human) (UniProt Q7L7X3); test: KINOMEscan competition binding; settings: compound 10.0 µM
PLK1 (human) = PLK1 (human) (UniProt P53350); test: KINOMEscan competition binding; settings: compound 10.0 µM

TTK (human), sequence (P33981 whole entry, looked up): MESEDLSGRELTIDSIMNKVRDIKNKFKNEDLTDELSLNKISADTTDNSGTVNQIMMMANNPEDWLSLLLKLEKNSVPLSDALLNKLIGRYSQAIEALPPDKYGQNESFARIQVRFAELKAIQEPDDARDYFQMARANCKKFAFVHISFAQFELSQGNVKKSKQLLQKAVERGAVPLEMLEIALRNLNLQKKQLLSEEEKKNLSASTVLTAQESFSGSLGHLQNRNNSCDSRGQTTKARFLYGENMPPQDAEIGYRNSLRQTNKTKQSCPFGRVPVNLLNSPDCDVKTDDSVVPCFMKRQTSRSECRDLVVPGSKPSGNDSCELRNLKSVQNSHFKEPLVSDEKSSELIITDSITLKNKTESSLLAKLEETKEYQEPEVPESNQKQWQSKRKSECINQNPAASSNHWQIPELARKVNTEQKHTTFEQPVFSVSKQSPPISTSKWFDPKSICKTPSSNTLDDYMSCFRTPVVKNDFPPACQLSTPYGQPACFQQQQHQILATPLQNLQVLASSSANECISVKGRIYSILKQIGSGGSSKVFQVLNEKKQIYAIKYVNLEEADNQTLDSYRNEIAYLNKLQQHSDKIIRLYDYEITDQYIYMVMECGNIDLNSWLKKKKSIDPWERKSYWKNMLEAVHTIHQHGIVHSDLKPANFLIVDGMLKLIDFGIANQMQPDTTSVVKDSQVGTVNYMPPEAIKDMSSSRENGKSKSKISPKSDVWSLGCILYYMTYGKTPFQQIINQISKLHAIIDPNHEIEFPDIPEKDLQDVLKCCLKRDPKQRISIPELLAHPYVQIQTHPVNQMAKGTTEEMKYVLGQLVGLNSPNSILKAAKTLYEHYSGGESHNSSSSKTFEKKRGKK

COc1cc(C(=O)NC2CCN(C)CC2)ccc1Nc1ncc2c(n1)N(C1CCCC1)CCC(=O)N2C
IC50 (TTK (human) [1]): 2280 nM | kinase still bound, per cent of control (MYLK (human)): 2.2% | kinase still bound, per cent of control (PRKD3 (human)): 32% | Kd (TTK (human) [2]): 576 nM | kinase still bound, per cent of control (TTK (human) [2]): 5.2% | kinase still bound, per cent of control (SLK (human)): 12% | kinase still bound, per cent of control (FER (human)): 33% | kinase still bound, per cent of control (ALK (human)): 16% | kinase still bound, per cent of control (PRKD1 (human)): 28% | kinase still bound, per cent of control (CAMK1D (human)): 29% | kinase still bound, per cent of control (RPS6KA6 KD2 (human)): 14% | kinase still bound, per cent of control (STK33 (human)): 5.2% | kinase still bound, per cent of control (RPS6KA1 KD2 (human)): 25% | kinase still bound, per cent of control (TNK1 (human)): 28% | kinase still bound, per cent of control (PLK4 (human)): 11% | kinase still bound, per cent of control (DAPK3 (human)): 11% | kinase still bound, per cent of control (CLK2 (human)): 21% | kinase still bound, per cent of control (RPS6KA2 KD2 (human)): 14% | kinase still bound, per cent of control (PTK2B (human)): 26% | kinase still bound, per cent of control (DCLK1 (human)): 6.1% | kinase still bound, per cent of control (CAMK2A (human)): 21% | kinase still bound, per cent of control (INSRR (human)): 19% | kinase still bound, per cent of control (DCLK2 (human)): 8.6% | kinase still bound, per cent of control (PTK2 (human)): 2.6% | kinase still bound, per cent of control (CLK1 (human)): 27% | kinase still bound, per cent of control (GAK (human)): 4.2% | kinase still bound, per cent of control (IGF1R (human)): 20% | kinase still bound, per cent of control (INSR (human)): 32% | kinase still bound, per cent of control (DAPK2 (human)): 12% | kinase still bound, per cent of control (PLK3 (human)): 0% | kinase still bound, per cent of control (DAPK1 (human)): 4%

CN(C)C1=NC(=O)/C(=C/c2ccc(-c3ccc(S(N)(=O)=O)cc3)o2)S1
IC50 (PIM1 (human) [3]): 1890 nM | IC50 (PIM2 (human) [4]): 6450 nM | kinase still bound, per cent of control (TTK (human) [2]): 9% | kinase still bound, per cent of control (CSK (human)): 31% | kinase still bound, per cent of control (PIM3 (human)): 2.9% | kinase still bound, per cent of control (MAPK14 (human)): 21% | kinase still bound, per cent of control (PIM1 (human) [5]): 3.5% | kinase still bound, per cent of control (MAPK10 (human)): 22% | kinase still bound, per cent of control (MAPK9 (human)): 8.1% | kinase still bound, per cent of control (RPS6KA1 KD2 (human)): 31% | kinase still bound, per cent of control (PIM2 (human) [6]): 3.4% | kinase still bound, per cent of control (PLK4 (human)): 0.7% | kinase still bound, per cent of control (CLK2 (human)): 33% | kinase still bound, per cent of control (MAP2K3 (human)): 16% | kinase still bound, per cent of control (CDK16 (human)): 0.45% | kinase still bound, per cent of control (CDK7 (human)): 22% | kinase still bound, per cent of control (MAPK8 (human)): 33% | kinase still bound, per cent of control (MAPK12 (human)): 33% | kinase still bound, per cent of control (MAPK15 (human)): 19% | kinase still bound, per cent of control (MYLK4 (human)): 24% | kinase still bound, per cent of control (TLK2 (human)): 33% | kinase still bound, per cent of control (HIPK1 (human)): 4.3% | kinase still bound, per cent of control (TAOK1 (human)): 9.2%

COc1cc(C(=O)NC2CCN(C)CC2)ccc1Nc1ncc2c(n1)N(C1CCC(O)CC1)CCC(=O)N2C (stereo not given)
kinase still bound, per cent of control (MYLK (human)): 3% | kinase still bound, per cent of control (TTK (human) [2]): 0.85% | kinase still bound, per cent of control (PLK1 (human)): 2% | kinase still bound, per cent of control (SLK (human)): 20% | kinase still bound, per cent of control (ALK (human)): 14% | kinase still bound, per cent of control (RPS6KA6 KD2 (human)): 22% | kinase still bound, per cent of control (STK33 (human)): 5.6% | kinase still bound, per cent of control (RPS6KA1 KD2 (human)): 15% | kinase still bound, per cent of control (PLK4 (human)): 8% | kinase still bound, per cent of control (DAPK3 (human)): 9.9% | kinase still bound, per cent of control (RPS6KA2 KD2 (human)): 9.6% | kinase still bound, per cent of control (PTK2B (human)): 12% | kinase still bound, per cent of control (DCLK1 (human)): 11% | kinase still bound, per cent of control (INSRR (human)): 23% | kinase still bound, per cent of control (DCLK2 (human)): 31% | kinase still bound, per cent of control (PTK2 (human)): 7.1% | kinase still bound, per cent of control (GAK (human)): 2.7% | kinase still bound, per cent of control (INSR (human)): 30% | kinase still bound, per cent of control (DAPK2 (human)): 24% | kinase still bound, per cent of control (PLK3 (human)): 4.1% | kinase still bound, per cent of control (DAPK1 (human)): 8.2%

— the kinase profiling compilation of Christmann-Franck et al. (2016)
